# Laboratory results from patent publication US11319307B2, “2,3-dihydrobenzohurans as bromodomain inhibitors” (GLAXOSMITHKLINE INTELLECTUAL PROPERTY (NO.2) LIMITED, priority 2017, dated 2022).
# Tested on: BET family (BRD2, BRD3, BRD4 and BRDT) single and double mutant tandem domain proteins
# Test: Fluorescence Polarisation binding of Reference Compound X to mutant tandem BET proteins
# Design: species or system Human
# Method: The competition of the compounds of formula (I) with Reference Compound X for binding to the BET family (BRD2, BRD3, BRD4 and BRDT) was assessed using protein truncates spanning both bromodomain 1 (BD1) and bromodomain 2 (BD2). In order to monitor differential binding to either BD1 or BD2, single residue mutations of key tyrosines to alanine were made in the acetyl lysine binding pockets. To validate this approach, a double residue mutant tandem domain protein was produced for each of the BET family members. Utilising a Fluorescence Polarisation approach, binding affinities for each of the single and double mutants for Reference Compound X were determined. […] The affinities of the single mutated bromdomain tandem proteins for Reference Compound X were equi-potent with the corresponding non-mutated BET protein. […] In the TR-FRET competition assay, Reference Compound X is used at a concentration that is equivalent to the Kd for the non-mutated bromodomain, which ensures that no binding at the mutated bromodomain is detected. […]
compound,measurement,setting,value
COc1ccc2c(c1)C(c1ccc(Cl)cc1)=N[C@@H](CC(=O)NCCCCCNC(=O)CCCCCC1(C)/C(=C/C=C/C=C/C3=[N+](CCCCS(=O)(=O)O)c4ccc(S(=O)(=O)O)cc4C3(C)C)N(CCCCS(=O)(=O)[O-])c3ccc(S(=O)(=O)O)cc31)c1nnc(C)n1-2 (some centres unmarked) [Reference Compound X],reduction in Kd (affinity for Reference Compound X),"double mutant tandem proteins versus non mutated, wild type tandem BET proteins",> 1000 fold
same,reduction of the Kd of the interaction between the mutated bromodomain and Reference Compound X,single mutations of Tyrosine to Alanine,> 1000 fold
